# Results as given in patent US20140213446A1, “HERBICIDAL COMPOSITIONS AND METHODS USING COMBINATIONS OF 4-AMINO-3-CHLORO-6-(4-CHLORO-2-FLUORO-3-METHOXYPHENYL)PYRIDINE-2-CARBOXYLIC ACID OR A DERIVATIVE THEREOF AND AN ARYLOXYPHENOXY PROPIONATE ACCASE INHIBITOR HERBICIDE” (DOW AGROSCIENCES LLC, priority 2013, published 2014).
# Columns and labels:
# Experiment in all cases: Postemergence foliar-applied herbicidal mixtures, weeds common to row crops
# Type in all cases: in vivo
# [1] = test system: AVEFA Avena fatua L. (wild oat)
# From the text: (§1) Evaluation of Postemergence Foliar-Applied Herbicidal Mixtures for Control of Weeds Common to Row Crops such as Corn and Soybeans. Seeds or nutlets of the desired test plant species were planted in a soil matrix prepared by mixing a loam or sandy loam soil (e.g., 28.6 percent silt, 18.8 percent clay, and 52.6 percent sand, with a pH of about 5.8 and an organic matter content of about 1.8 percent) and calcareous grit in an 80 to 20 ratio. The soil matrix was contained in plastic pots with a surface area of 84.6 cm^2 and a volume of 560 cubic centimeters (cm^3). When required to ensure good germination and healthy plants, a fungicide treatment and/or other chemical or physical treatment was applied. The plants were grown for 7-31 d in a greenhouse with an approximate 15 h photoperiod which was maintained at about 23-29° C. during the day and 22-28° C. during the night. Nutrients (Peters Excel® 15-5-15 5-Ca 2-Mg) and water were added on a regular basis and supplemental lighting was provided with overhead metal halide 1000-Watt lamps as necessary. The plants were employed for testing when they reached the first, second, or third true leaf stage.
# (§2) Treatment requirements were calculated based upon the rates being tested, the concentration of active ingredient or acid equivalent in the formulation, and a 12 mL application volume at a rate of 187 L/ha.
# (§3) Treatments consisted of the potassium (K^+) salt of 4-amino-3-chloro-6-(4-chloro-2-fluoro-3-methoxyphenyl)-pyridine-2-carboxylic acid (Cmpd 4) formulated as a soluble liquid (SL), the propargyl ester of 4-amino-3-chloro-6-(4-chloro-2-fluoro-3-methoxyphenyl)-pyridine-2-carboxylic acid (Cmpd 2) as technical grade material, or the benzyl ester of 4-amino-3-chloro-6-(4-chloro-2-fluoro-3-methoxyphenyl)-pyridine-2-carboxylic acid (Cmpd 3) as technical grade material and quizalofop-p-ethyl (Assure® II) alone and in combination. Forms of compound of formula (I) and quizalofop-P-ethyl were applied on an acid equivalent basis.
# (§4) For treatments comprised of formulated compounds, measured amounts of compounds were placed individually in 25 mL glass vials and diluted in a volume of 1.5% (v/v) Agri-Dex® crop oil concentrated to obtain 6× stock solutions. […] Application solutions were prepared by adding an appropriate amount of each stock solution (typically 2 mL) and diluted to the appropriate final concentrations with the addition of an appropriate amount of an aqueous mixture of 1.5% (v/v) crop oil concentrate and water so that the final spray solutions contained 1.25+/−0.05% (v/v) crop oil concentrate.
# (§5) For treatments comprised of formulated and technical compounds, weighed amounts of the technical materials were placed individually in 25 mL glass vials and dissolved in a volume of 97:3 v/v acetone/DMSO to obtain 6× stock solutions, and measured amounts of the formulated compounds were placed individually in 25 mL glass vials and diluted in a volume of 1.5% (v/v) crop oil concentrate or water to obtain 6× stock solutions. […] Application solutions were prepared by adding an appropriate amount of each stock solution (e.g., 2 mL) and diluted to the appropriate final concentrations with the addition of an appropriate amount of an aqueous mixture of 1.5% (v/v) crop oil concentrate and water so that the final spray solutions contained 1.25% (v/v) crop oil concentrate. When required, additional water and/or 97:3 v/v acetone/DMSO can be added to individual application solutions so that the final acetone and DMSO concentrations of the application solutions being compared are 16.2% and 0.5%, respectively.
# (§6) All stock solutions and applications solutions were visually inspected for compound compatibility prior to application. Compound requirements are based upon a 12 mL application volume at a rate of 187 liters per hectare (L/ha). […]
# [2] = test system: DIGSA Digitaria sanguinalis (L.) Scop. (large crabgrass)
# From the text: as §1, §2, §3, §4, §5, §6
# [3] = test system: LOLMU Lolium multiflorum Lam. (Italian ryegrass)
# From the text: as §1, §2, §3, §4, §5, §6
# [4] = test system: OEOBI Oenothera biennis (evening primrose)
# From the text: as §1, §2, §3, §4, §5, §6
# [5] = test system: SORHA Sorghum halepense (L.) Pers. (Johnsongrass)
# From the text: as §1, §2, §3, §4, §5, §6
compound,measurement,setting,value
"COc1c(Cl)ccc(-c2cc(N)c(Cl)c(C(=O)OCc3ccccc3)n2)c1F [Cmpd 3, benzyl ester of 4-amino-3-chloro-6-(4-chloro-2-fluoro-3-methoxyphenyl)-pyridine-2-carboxylic acid]",Percent (%) injury rated visually 14 DAA Obs,[1]; Cmpd 3 3.75 g ae/ha,10%
same,Percent (%) injury rated visually 14 DAA Obs,[1]; Cmpd 3 7.5 g ae/ha,0%
same,Percent (%) injury rated visually 14 DAA Obs,[1]; Cmpd 3 15 g ae/ha,0%
same,Percent (%) injury rated visually 14 DAA Obs,[2]; Cmpd 3 3.75 g ae/ha,40%
same,Percent (%) injury rated visually 14 DAA Obs,[2]; Cmpd 3 7.5 g ae/ha,40%
same,Percent (%) injury rated visually 14 DAA Obs,[2]; Cmpd 3 15 g ae/ha,35%
same,Percent (%) injury rated visually 14 DAA Obs,[3]; Cmpd 3 3.75 g ae/ha,15%
same,Percent (%) injury rated visually 14 DAA Obs,[3]; Cmpd 3 7.5 g ae/ha,50%
same,Percent (%) injury rated visually 14 DAA Obs,[3]; Cmpd 3 15 g ae/ha,40%
"C#CCOC(=O)c1nc(-c2ccc(Cl)c(OC)c2F)cc(N)c1Cl [Cmpd 2, propargyl ester of 4-amino-3-chloro-6-(4-chloro-2-fluoro-3-methoxyphenyl)-pyridine-2-carboxylic acid]",Percent (%) injury rated visually 14 DAA Obs,[4]; Cmpd 2 3.75 g ae/ha,65%
same,Percent (%) injury rated visually 14 DAA Obs,[5]; Cmpd 2 3.75 g ae/ha,0%
same,Percent (%) injury rated visually 14 DAA Obs,[5]; Cmpd 2 7.5 g ae/ha,0%
same,Percent (%) injury rated visually 14 DAA Obs,[5]; Cmpd 2 15 g ae/ha,10%
potassium (K^+) salt of 4-amino-3-chloro-6-(4-chloro-2-fluoro-3-methoxyphenyl)-pyridine-2-carboxylic acid [Cmpd 4],Percent (%) injury rated visually 14 DAA Obs,[2]; Cmpd 4 3.75 g ae/ha,20%
same,Percent (%) injury rated visually 14 DAA Obs,[2]; Cmpd 4 7.5 g ae/ha,15%
same,Percent (%) injury rated visually 14 DAA Obs,[2]; Cmpd 4 15 g ae/ha,40%
same,Percent (%) injury rated visually 14 DAA Obs,[3]; Cmpd 4 3.75 g ae/ha,0%
same,Percent (%) injury rated visually 14 DAA Obs,[3]; Cmpd 4 7.5 g ae/ha,15%
same,Percent (%) injury rated visually 14 DAA Obs,[3]; Cmpd 4 15 g ae/ha,40%
same,Percent (%) injury rated visually 14 DAA Obs,[4]; Cmpd 4 3.75 g ae/ha,50%
same,Percent (%) injury rated visually 14 DAA Obs,[4]; Cmpd 4 7.5 g ae/ha,80%
same,Percent (%) injury rated visually 14 DAA Obs,[5]; Cmpd 4 3.75 g ae/ha,0%
same,Percent (%) injury rated visually 14 DAA Obs,[5]; Cmpd 4 7.5 g ae/ha,0%
same,Percent (%) injury rated visually 14 DAA Obs,[5]; Cmpd 4 15 g ae/ha,10%
